Measurements as given in ChEMBL document CHEMBL2363022, “Malaria Box Schistosomiasis Screening Data” (2013).

Columns and labels:
Format in all cases: functional
Parameters in all cases: scale not given here
[1] = tested on: Schistosoma mansoni
[2] = tested on: Schistosoma mansoni; remark: listed apart in the source
[3] = tested on: Schistosoma mansoni; remark: listed apart in the source

Compound | Toxicity [1] | Toxicity [2] | Toxicity [3]
c1ccc2cc3c(Nc4ccc(N5CCOCC5)cc4)ccnc3cc2c1 | 2 | 4 | 4
O=c1c2c([nH]c3ccccc13)CCCC2 | 0 | 0 | 0
CCCc1cc(O)c2c3c(c(=O)oc2c1)CN(C)CC3 | 0 | 0 | 0
CCOc1cc2c(cc1OCC)C(c1cc(Cl)ccc1O)NCC2 (configuration not stated) | 0 | 1 | 0
COc1cc(OC)cc(N2C(=O)N(Cc3ccc(C(C)(C)C)cc3)c3ccccc3S2(=O)=O)c1 | 0 | 0 | 0
Oc1ccc(-c2nc(-c3ccc4oc5ccc(-c6[nH]c(-c7ccc(O)cc7)nc6-c6ccccc6)cc5c4c3)c(-c3ccccc3)[nH]2)cc1 | 0 | 0 | 0
Fc1ccc2[nH]c3c(NCCCN4CCOCC4)ncnc3c2c1 | 0 | 0 | 1
CN1C=C(c2ccc3ccccc3n2)C(c2c[nH]c3ccccc23)c2ccccc21 (configuration not stated) | 0 | 0 | 0
C=C(C)CCC(C)N1CCC(N2CCC(C(=O)NCCc3ccccc3)CC2)CC1 (configuration not stated) | 0 | 0 | 2
CCC1(C)CC(CCNCc2ccccc2O)(c2ccc(C)cc2)CCO1 (configuration not stated) | 2 | 2 | 4
COc1ccccc1C(=O)ON=C(N)Cc1cccc2ccccc12 | 1 | 3 | 3
FC(F)(F)c1cccc(Nc2nc(-c3ccccc3)nc3ncccc23)c1 | 0 | 0 | 0
CCCCNCC(O)(c1ccc(Cl)cc1)c1ccc(Cl)cc1 | 0 | 0 | 0
Cc1ccc(N2C3c4ccccc4N(S(=O)(=O)c4ccc(C)cc4)C2c2ccccc2N3S(=O)(=O)c2ccc(C)cc2)cc1 | 0 | 0 | 0
CC(NCc1ccccc1)c1cc(Cl)ccc1O (configuration not stated) | 2 | 0 | 0
COc1ccc(C(=O)C2CC2c2ccc(Cl)cc2)cc1 (configuration not stated) | 0 | 0 | 0
CCOC(=O)c1cnc2c(C)cc(C)cc2c1Nc1ccc(OC)c(OC)c1 | 0 | 2 | 0
O=C(NNc1cc(N2CCCC2)nc(N2CCCC2)n1)c1ccccc1 | 1 | 0 | 4
COc1ccc(N2CCN(C(CNC(=O)CC(C)(C)C)c3ccc4c(c3)OCO4)CC2)cc1 (configuration not stated) | 0 | 0 | 0
O=C(NCc1ccco1)C1CCN(S(=O)(=O)c2ccc(Br)cc2)CC1 | 0 | 0 | 0
N=c1c2ccccc2nnn1-c1cccc(C(F)(F)F)c1 | 0 | 0 | 0
Cc1cc(=O)oc2c1ccc1oc(C(=O)c3ccccc3)c(C)c12 | 0 | 0 | 0
CN(C)CCCNc1c2ccccc2nc2ccccc12 | 2 | 2 | 4
Cc1ccc2nc(C)cc(Nc3cccc(C(F)(F)F)c3)c2c1.Cl | 2 | 2 | 3
COc1ccccc1N1CCN(C(CNS(=O)(=O)c2ccc(Cl)cc2)c2cccnc2)CC1 (configuration not stated) | 0 | 0 | 0

Compound | Toxicity [1] | Toxicity [2] | Toxicity [3]
O=C(NC1CCN(Cc2ccccc2)CC1)c1cc2nc(-c3ccc(Cl)s3)cc(C(F)(F)F)n2n1 | 0 | 4 | 4
CCOc1cccc(C(=O)Nc2ccc(-c3nc4ccccc4[nH]3)cc2)c1 | 0 | 0 | 2
N=c1n(CCN2CCCCC2)c2ccccc2n1CC(=O)c1ccc(Cl)c(Cl)c1 | 3 | 4 | 4
COc1ccc(C(=O)Nc2nonc2-c2ccc(OC)c(OC)c2)cc1Cl | 0 | 0 | 0
COc1ccccc1N1C(=N)SC(=Cc2ccc(OCc3ccccc3F)cc2)C1=O | 0 | 0 | 0
O=C(Nc1ccsc1C(=O)NC1CCCCC1)c1ccc(F)cc1 | 2 | 0 | 0
COc1cc2c3cc1Oc1c(OC)c(OC)cc4c1C(Cc1ccc(O)c(c1)Oc1ccc(cc1)CC3N(C)CC2)N(C)CC4.Cl (configuration not stated) | 2 | 3 | 4
CCOC(=O)C1CCN(C(=O)CN2C(=O)c3ccccc3C2c2c[nH]c3ccccc23)CC1 (configuration not stated) | 0 | 0 | 0
COc1ccccc1CNC(=O)CCn1c(=O)[nH]c2ccsc2c1=O | 0 | 0 | 0
COc1ccc(C2c3ccc4ccccc4c3Oc3ncn(CCCN(C)C)c(=N)c32)cc1 (configuration not stated) | 4 | 4 | 4
Cc1ccc(Nc2nc(NCCO)c3ccccc3n2)cc1C | 1 | 0 | 1
O=C(Nc1ccc(-c2nc3cc(NC(=O)c4ccc(Cl)cc4)ccc3[nH]2)cc1)c1ccc(Cl)cc1 | 1 | 0 | 0
CCOc1ccc(Nc2c3ccccc3nc3ccccc23)cc1.Cl | 2 | 3 | 4
O=C(NC1CCN(Cc2ccccc2)CC1)c1cc(-c2ccncc2)nc2ccc(Cl)cc12 | 0 | 0 | 2
Cc1ccc(Nc2nc(-c3ccccn3)cs2)cc1 | 0 | 0 | 0
Cc1ccc(S(=O)(=O)c2c(COC(=O)c3cccc(C)c3)c(-c3ccccc3)nn2C)cc1 | 0 | 0 | 0
CCOc1c(Cl)cc(CNCC(O)c2ccccc2)cc1OC (configuration not stated) | 0 | 0 | 0
COc1ccc(-c2cc3c(nn2)-c2ccccc2C3=O)cc1 | 0 | 0 | 0
CCCCCCOC(=O)C1=C(C)NC(=O)NC1c1ccccc1F (configuration not stated) | 0 | 0 | 0
CCCCCCc1cc(O)c2c3c(c(=O)oc2c1)CCC(C)C3 (configuration not stated) | 0 | 2 | 0
COc1ccc(C=C2SC(Nc3ccc(F)cc3)=NC2=O)c(OC)c1 | 0 | 0 | 0
O=C(NC1CCCCC1)C(c1cccs1)N(CCc1ccccc1)C(=O)c1ccco1 (configuration not stated) | 0 | 0 | 0
Cc1cc(N2CCN(C3CCCC3)CC2)n2c(nc3ccccc32)c1C#N | 0 | 0 | 0
O=c1nc(C=Cc2ccc(Cl)cc2)oc2ccccc12 | 2 | 0 | 0
